Reference: patent US20120270929A1, “MODULATION OF TTC39 EXPRESSION TO INCREASE HDL” (ISIS Pharmaceuticals, Inc., priority 2009, published 2012)
Oligonucleotides are written 5' to 3', each unit as a sugar letter and its base; * is a phosphorothioate linkage, no mark a phosphodiester; rarer units and linkages stand in square brackets, end groups in braces. Plain capitals give the bases only. e = 2'-O-(2-methoxyethyl) (MOE); [5mC] = 5-methylcytosine; d = 2'-deoxy (DNA)

Assays:
murine TTC39B mRNA [1] = experiment: Dose-dependent antisense inhibition of murine TTC39B in mouse primary hepatocytes (Example 2); format: cell-based; details: cytofectin, ~16 h
Method: Cells were plated at a density of 10,000 cells per well and transfected using cytofectin reagent with 25 nM, 50 nM, 100 nM, and 200 nM concentrations of antisense oligonucleotide, as specified in Table 3. After a treatment period of approximately 16 hours, RNA was isolated from the cells and TTC39B mRNA levels were measured by quantitative real-time PCR. Murine primer probe set mTtc39b_LTS00287 (forward sequence: […], incorporated herein as SEQ ID NO: 94; reverse sequence: […], incorporated herein as SEQ ID NO: 95; probe sequence: […], incorporated herein as SEQ ID NO: 96) was used to measure mRNA levels. TTC39B mRNA levels were adjusted according to total RNA content, as measured by RIBOGREEN®. Results are presented as percent inhibition of TTC39B, relative to untreated control cells.

[2] = Plasma cholesterol and triglycerides in C57BL/6 mice (Olympus AU400e); format: in vivo, mouse; details: for total cholesterol % increase over baseline: 6 weeks, baseline average of 72 mg/dL
Method: (§1) Four groups of five mice each were injected twice a week with 25 mg/kg (totaling 50 mg/kg/week) of ISIS 447114, ISIS 447118, ISIS 447143, or ISIS 447144 for 6 weeks. A control group of five mice was injected with phosphate buffered saline (PBS) twice a week for 6 weeks. Plasma samples were obtained before the start of treatment, at week 3 and at week 6. At the end of the treatment period, mice were fasted for 4 hours before being euthanized. Plasma and tissue samples were obtained for further analysis.
To investigate the effect of inhibition of TTC39B on triglycerides and cholesterol levels in the plasma, samples were collected on weeks 0, 3, and 6, and total plasma cholesterol, LDL cholesterol, HDL cholesterol, and triglycerides were analyzed on an Olympus AU400e Analyzer.

[3] = Body and organ weights in C57BL/6 mice; format: in vivo, mouse; details: for Kidney weight after treatment / Liver weight after treatment / Spleen weight after treatment: 50 mg/kg/week, 6 weeks
Method: as §1
Body weights of all the mice were measured weekly till the end of the treatment period. Organ weights were taken at the end of the treatment period when the mice were euthanized.

[4] = Plasma glucose in C57BL/6 mice (glucose oxidase assay); format: in vivo, mouse
Method: as §1
Plasma glucose values were determined using a Beckman Glucose Analyzer II (Beckman Coulter) by a glucose oxidase assay. As presented in Table 14, there was no significant change in glucose levels after treatment with ISIS oligonucleotides.

SRB1 mRNA = SRB1 mRNA levels in C57BL/6 mice after TTC39B inhibition; format: in vivo, mouse; details: 50 mg/kg/week, 6 weeks
Method: as §1
The effect of inhibition of TTC39B in mice on these proteins of reverse cholesterol transport was studied. RNA levels of ABCA1 were measured using murine primer probe set RTS1204 (forward sequence […], designated herein as SEQ ID NO: 97; reverse sequence […], designated herein as SEQ ID NO: 98; and probe sequence […], designated herein as SEQ ID NO: 99). RNA levels of apoA1 were measured using murine primer probe set RTS14737 (forward sequence […], designated herein as SEQ ID NO: 100; reverse sequence […], designated herein as SEQ ID NO: 101; and probe sequence […], designated herein as SEQ ID NO: 102). RNA levels of SRB1 were measured using murine primer probe set mSRB-1 (forward sequence […], designated herein as SEQ ID NO: 103; reverse sequence ATGCGACTTGTCAGGCTGG, designated herein as SEQ ID NO: 104; and probe sequence […], designated herein as SEQ ID NO: 105).

murine TTC39B mRNA [5] = experiment: Dose-dependent antisense inhibition of murine TTC39B in mouse primary hepatocytes (Example 3); format: cell-based; details: cytofectin, ~16 h
Method: Cells were plated at a density of 10,000 cells per well and transfected using cytofectin reagent with 6.25 nM, 12.5 nM, 25 nM, 50 nM, 100 nM, and 200 nM concentrations of antisense oligonucleotide, as specified in Table 4. After a treatment period of approximately 16 hours, RNA was isolated from the cells and TTC39B mRNA levels were measured by quantitative real-time PCR. Murine primer probe set mTtc39b_LTS00287 was used to measure mRNA levels. TTC39B mRNA levels were adjusted according to total RNA content, as measured by RIBOGREEN®. Results are presented as percent inhibition of TTC39B, relative to untreated control cells.

PCSK9 mRNA = PCSK9 mRNA levels in C57BL/6 mice; format: in vivo, mouse; details: 50 mg/kg/week, 6 weeks, compared to PBS control
Method: as §1
The effect of inhibition of TTC39B in mice on cholesterol homeostasis was studied. PCSK9 mRNA levels were measured using the murine primer probe set mPCSK9 (forward sequence ACCGACTTCAACAGCGTGC, designated herein as SEQ ID NO: 106; reverse sequence GGCTGTCACACTTGCTCGC, designated herein as SEQ ID NO: 107, probe sequence AGGATGGGACACGCTTCCACAGACAX, wherein X is a fluorophore, designated herein as SEQ ID NO: 108). LDLR mRNA levels were measured using the murine primer probe set mLDLR (forward sequence GACCGCAGCGAGTACACCA, designated herein as SEQ ID NO: 109; reverse sequence TCACCTCCGTGTCGAGAGC, designated herein as SEQ ID NO: 110, probe sequence […], designated herein as SEQ ID NO: 111). The results are presented as percentage inhibition compared to the PBS control.

APOA1 plasma protein = APOA1 plasma protein levels in C57BL/6 mice; format: in vivo, mouse; set-up: APOA1 plasma protein levels: unit not given here; details: for APOA1 plasma protein % change over the baseline: 6 weeks
Method: as §1

[6] = Week 0 (before treatment), 50 mg/kg/week

GCAGCTCGATTCGGGCATGA (antisense eG*e[5mC]*eA*eG*e[5mC]*dT*d[5mC]*dG*dA*dT*dT*d[5mC]*dG*dG*dG*e[5mC]*eA*eT*eG*eA) [ISIS 447118]
percent inhibition of TTC39B mRNA (murine TTC39B mRNA [1]; 25 nM): 49%
percent inhibition of TTC39B mRNA (murine TTC39B mRNA [1]; 50 nM): 65%
percent inhibition of TTC39B mRNA (murine TTC39B mRNA [1]; 100 nM): 74%
percent inhibition of TTC39B mRNA (murine TTC39B mRNA [1]; 200 nM): 82%
total cholesterol % increase over baseline ([2]; 50 mg/kg/week): +37%
HDL cholesterol levels [2, 6]: 45 mg/dL
LDL cholesterol levels [2, 6]: 14 mg/dL
total cholesterol levels [2, 6]: 71 mg/dL
triglyceride levels [2, 6]: 82 mg/dL
HDL cholesterol levels ([2]; Week 3, 50 mg/kg/week): 50 mg/dL
HDL cholesterol levels (% change over baseline) ([2]; Week 3, 50 mg/kg/week): +15%
LDL cholesterol levels ([2]; Week 3, 50 mg/kg/week): 13 mg/dL
total cholesterol levels ([2]; Week 3, 50 mg/kg/week): 77 mg/dL
triglyceride levels ([2]; Week 3, 50 mg/kg/week): 69 mg/dL
HDL cholesterol levels ([2]; Week 6, 50 mg/kg/week): 100 mg/dL
HDL cholesterol levels (% change over baseline) ([2]; Week 6, 50 mg/kg/week): +89%
LDL cholesterol levels ([2]; Week 6, 50 mg/kg/week): 15 mg/dL
total cholesterol levels ([2]; Week 6, 50 mg/kg/week): 97 mg/dL
triglyceride levels ([2]; Week 6, 50 mg/kg/week): 88 mg/dL
Kidney weight after treatment [3]: 0.32 g
Liver weight after treatment [3]: 1.4 g
Spleen weight after treatment [3]: 0.08 g
body weight ([3]; Week 3, 50 mg/kg/week): 26 g
body weight ([3]; Week 6, 50 mg/kg/week): 27 g
body weight ([3]; week 1, 50 mg/kg/week): 24 g
body weight ([3]; week 2, 50 mg/kg/week): 25 g
body weight ([3]; week 4, 50 mg/kg/week): 26 g
body weight ([3]; week 5, 50 mg/kg/week): 27 g
glucose levels [4, 6]: 242 mg/dL
glucose levels ([4]; Week 3, 50 mg/kg/week): 271 mg/dL
glucose levels ([4]; Week 6, 50 mg/kg/week): 238 mg/dL
srb1 mRNA levels (effect of TTC39B inhibition) (SRB1 mRNA): 0
percent inhibition of TTC39B mRNA (murine TTC39B mRNA [5]; 6.25 nM): 0%
percent inhibition of TTC39B mRNA (murine TTC39B mRNA [5]; 12.5 nM): 24%
percent inhibition of TTC39B mRNA (murine TTC39B mRNA [5]; 25.0 nM): 45%
percent inhibition of TTC39B mRNA (murine TTC39B mRNA [5]; 50.0 nM): 66%
percent inhibition of TTC39B mRNA (murine TTC39B mRNA [5]; 100.0 nM): 77%
percent inhibition of TTC39B mRNA (murine TTC39B mRNA [5]; 200.0 nM): 81%
Percent inhibition PCSK9 mRNA levels (PCSK9 mRNA): 45%
APOA1 plasma protein % change over the baseline (APOA1 plasma protein; 50 mg/kg/week): +88%
APOA1 plasma protein levels (APOA1 plasma protein; [6]): +9
APOA1 plasma protein levels (APOA1 plasma protein; Week 3, 50 mg/kg/week): +13
APOA1 plasma protein levels (APOA1 plasma protein; Week 6, 50 mg/kg/week): +18

TATTTCTATAGCTCATGACA (antisense eT*eA*eT*eT*eT*d[5mC]*dT*dA*dT*dA*dG*d[5mC]*dT*d[5mC]*dA*eT*eG*eA*e[5mC]*eA) [ISIS 447144]
percent inhibition of TTC39B mRNA (murine TTC39B mRNA [1]; 25 nM): 37%
percent inhibition of TTC39B mRNA (murine TTC39B mRNA [1]; 50 nM): 69%
percent inhibition of TTC39B mRNA (murine TTC39B mRNA [1]; 100 nM): 74%
percent inhibition of TTC39B mRNA (murine TTC39B mRNA [1]; 200 nM): 84%
total cholesterol % increase over baseline ([2]; 50 mg/kg/week): +37%
HDL cholesterol levels [2, 6]: 46 mg/dL
LDL cholesterol levels [2, 6]: 14 mg/dL
total cholesterol levels [2, 6]: 75 mg/dL
triglyceride levels [2, 6]: 78 mg/dL
HDL cholesterol levels ([2]; Week 3, 50 mg/kg/week): 53 mg/dL
HDL cholesterol levels (% change over baseline) ([2]; Week 3, 50 mg/kg/week): +14%
LDL cholesterol levels ([2]; Week 3, 50 mg/kg/week): 14 mg/dL
total cholesterol levels ([2]; Week 3, 50 mg/kg/week): 81 mg/dL
triglyceride levels ([2]; Week 3, 50 mg/kg/week): 70 mg/dL
HDL cholesterol levels ([2]; Week 6, 50 mg/kg/week): 90 mg/dL
HDL cholesterol levels (% change over baseline) ([2]; Week 6, 50 mg/kg/week): +88%
LDL cholesterol levels ([2]; Week 6, 50 mg/kg/week): 18 mg/dL
total cholesterol levels ([2]; Week 6, 50 mg/kg/week): 107 mg/dL
triglyceride levels ([2]; Week 6, 50 mg/kg/week): 91 mg/dL
Kidney weight after treatment [3]: 0.34 g
Liver weight after treatment [3]: 1.3 g
Spleen weight after treatment [3]: 0.08 g
body weight ([3]; Week 3, 50 mg/kg/week): 26 g
body weight ([3]; Week 6, 50 mg/kg/week): 28 g
body weight ([3]; week 1, 50 mg/kg/week): 25 g
body weight ([3]; week 2, 50 mg/kg/week): 26 g
body weight ([3]; week 4, 50 mg/kg/week): 27 g
body weight ([3]; week 5, 50 mg/kg/week): 27 g
glucose levels [4, 6]: 222 mg/dL
glucose levels ([4]; Week 3, 50 mg/kg/week): 239 mg/dL
glucose levels ([4]; Week 6, 50 mg/kg/week): 235 mg/dL
srb1 mRNA levels (effect of TTC39B inhibition) (SRB1 mRNA): 0
Percent inhibition PCSK9 mRNA levels (PCSK9 mRNA): 19%
APOA1 plasma protein % change over the baseline (APOA1 plasma protein; 50 mg/kg/week): +108%
APOA1 plasma protein levels (APOA1 plasma protein; [6]): +10
APOA1 plasma protein levels (APOA1 plasma protein; Week 3, 50 mg/kg/week): +14
APOA1 plasma protein levels (APOA1 plasma protein; Week 6, 50 mg/kg/week): +20
